From patent publication US20210299079A1, “MONOMETHYL FUMARATE-CARRIER CONJUGATES AND METHODS OF THEIR USE” (Flagship Pioneering Innovations V, Inc., priority 2018, published 2021)
Counter-ions that a name gives are not always drawn.

Experiments:
Assay type in all cases: in vitro ADME
[1] = Stability of conjugates in Simulated Gastric Fluid (SGF); settings: SGF pH 1.6 with pepsin, 37° C., 1 μM compound
Procedure: Assay 1. Stability of conjugates in Simulated Gastric Fluid (SGF). This assay was used to assess the stability of a conjugate in a stomach.
Medium was prepared by dissolving 2 g of sodium chloride in 0.6 L in ultrapure water (MilliQ®, Millipore Sigma, Darmstadt, Germany). The pH was adjusted to 1.6 with 1N hydrochloric acid, and the volume was then adjusted to 1 L with purified water.
60 mg FaSSIF powder (Biorelevant™, London, UK) were dissolved in 500 mL buffer (above). Pepsin was added (0.1 mg/mL) (Millipore Sigma, Darmstadt, Germany), and the solution was stirred. The resulting SGF media were used fresh for each experiment.
(§1) Test compounds were dissolved in DMSO stock to 1 mM. An aliquot of the DMSO stock solution was removed and diluted in the SGF Media in 15 mL falcon tubes to generate a total compound concentration of 1 μM. A 1 mL aliquot was immediately removed and diluted once with 1 volume of acetonitrile for TO timepoint. The mixture was sealed and mixed at 37° C. in an incubator. Aliquots (1 mL) were removed at regular intervals and immediately quenched by the addition of 1 volume of acetonitrile. The resulting samples were analyzed by LC/MS to determine degradation rates in SGF.

[2] = Stability of conjugates in Simulated Intestinal Fluid (SIF); settings: SIF pH 6.7 with pancreatin, 37° C., 1 μM compound
Procedure: Assay 2. Stability of conjugates in Simulated Intestinal Fluid (SIF). This assay was used to assess the stability of a conjugate in a small intestine.
Phosphate buffer was prepared by dissolving 0.42 g of sodium hydroxide pellets and 3.95 g of monobasic sodium phosphate monohydrate and 6.19 g of sodium chloride in ultrapure water (MilliQ®, Millipore Sigma, Darmstadt, Germany). The pH was adjusted to 6.7 using aq. HCl and aq. NaOH, as necessary, and the solution was diluted with ultrapure water to produce 1 L of the pH 6.7 buffer.
112 mg FaSSIF powder (Biorelevant™, London, UK) was dissolved in 50 mL of the pH 6.7 buffer. 2 to 3 mL of the resulting solution were then added to 500 mg pancreatin (Millipore Sigma, Darmstadt, Germany). The resulting mixture was agitated by finger tapping the vessel containing the mixture until milky suspension formed. At this time, the remainder of the 50 mL FaSSiF/pH 6.7 buffer solution was added. The resulting suspension was flipped upside down 10 times to produce SIF, which was used fresh.
as §1, with “SIF media” for “SGF Media”, “produce” for “generate”, “mixture with a tested” for “total”, “agitated” for “mixed”, “rates” for “rates in SGF.”

[3] = In vitro Colonic Material Stability Assay; settings: colonic material slurry in YCFAC media, anaerobic, 1 or 10 μM
Procedure: Assay 3. In vitro Colonic Material Stability Assay. This assay was used to assess the stability of a conjugate in a large intestine. All experiments were performed in an anaerobic chamber containing 90% nitrogen, 5% hydrogen and 5% carbon dioxide. Colonic material was resuspended as a slurry (15% w/v final concentration) in pre-reduced, anaerobically sterilized dilution blanks (Anaerobe Systems AS-908). The colonic material was then inoculated into 96 well plates containing YCFAC media (Anaerobe Systems AS-680) or other suitable media (6.7 μL slurry into 1 mL total media). Compounds or groups of compounds were added to each individual well to reach a final analyte concentration of 1 or 10 μM, and the material was mixed by pipetting. Sample was removed after set timepoints (0, 120, 240, 480, 1440, 2880 minutes after initiation of the assay), quenched with acetonitrile containing internal standard, and analyzed by LC/MS.

| Compound | Assay 1 (SGF) (% Remaining @ 1 hour) [1] | Assay 2 (SIF) (% @ Remaining 4 hours) [2] | Assay 3 (% Remaining at 24 h) [3] |
| --- | --- | --- | --- |
| CCCC(=O)O[C@@H]1[C@@H](OC(=O)CCC)[C@@H](OC(=O)/C=C/C(=O)OC)O[C@H](CO)[C@H]1OC(=O)CCC [Compound 39, 1-methyl (2R,3R,4S,5R,6R)-3,4,5-tris(butanoyloxy)-6-(hydroxymethyl)oxan-2-yl (2E)-but-2-enedioate] | C (C: >75% of the tested compound remaining) | A (A: <25% of the tested compound remaining) | A (A: <25% of the tested compound remaining) |
| CCCC(=O)OC[C@H]1O[C@@H](OC(=O)/C=C/C(=O)OC)[C@H](OC(=O)CCC)[C@@H](OC(=O)CCC)[C@@H]1OC(=O)CCC [Compound 10, Methyl ((2S,3R,4S,5R,6R)-3,4,5-tris(butyryloxy)-6-((butyryloxy)methyl)tetrahydro-2H-pyran-2-yl) fumarate] | B (B: 25-75% of the tested compound remaining) | B (B: 25-75% of the tested compound remaining) | B (B: 25-75% of the tested compound remaining) |
| CCC(=O)O[C@@H]1[C@@H](OC(=O)CC)[C@H](OC(=O)/C=C/C(=O)OC)OC[C@@H]1OC(=O)CC [Compound 5, Methyl ((2S,3R,4S,5S)-3,4,5-tris(propionyloxy)tetrahydro-2H-pyran-2-yl) fumarate] | C (C: >75% of the tested compound remaining) | C (C: >75% of the tested compound remaining) | A (A: <25% of the tested compound remaining) |
| CCCC(=O)O[C@H]1[C@H](OC(=O)CCC)[C@H](OC(=O)/C=C/C(=O)OC)O[C@@H](C)[C@H]1OC(=O)CCC [Compound 13, Methyl ((2S,3S,4R,5R,6S)-3,4,5-tris(butyryloxy)-6-methyltetrahydro-2H-pyran-2-yl) fumarate] | B (B: 25-75% of the tested compound remaining) | A (A: <25% of the tested compound remaining) | C (C: >75% of the tested compound remaining) |
| CCCC(=O)O[C@H]1O[C@H](COC(=O)/C=C/C(=O)OC)[C@@H](OC(=O)CCC)[C@H](OC(=O)CCC)[C@H]1OC(=O)CCC [Compound 40, 1-methyl 4-[(2R,3R,4S,5R,6R)-3,4,5,6-tetrakis(butanoyloxy)oxan-2-yl]methyl (2E)-but-2-enedioate] | B (B: 25-75% of the tested compound remaining) | A (A: <25% of the tested compound remaining) | A (A: <25% of the tested compound remaining) |
| CCCC(=O)O[C@@H]1[C@@H](OC(=O)CCC)[C@H](OC(=O)/C=C/C(=O)OC)OC[C@@H]1OC(=O)CCC [Compound 36, 1-methyl (2S,3R,4S,5S)-3,4,5-tris(butanoyloxy)oxan-2-yl (2E)-but-2-enedioate] | C (C: >75% of the tested compound remaining) | A (A: <25% of the tested compound remaining) | C (C: >75% of the tested compound remaining) |
| CCCC(=O)O[C@@H]1[C@@H](OC(=O)CCC)[C@H](OC(=O)/C=C/C(=O)OC)O[C@H](CO)[C@H]1OC(=O)CCC [Compound 38, 1-methyl (2S,3R,4S,5R,6R)-3,4,5-tris(butanoyloxy)-6-(hydroxymethyl)oxan-2-yl (2E)-but-2-enedioate] | C (C: >75% of the tested compound remaining) | A (A: <25% of the tested compound remaining) | A (A: <25% of the tested compound remaining) |
| CCC(=O)OC[C@H]1O[C@H](OC(=O)/C=C/C(=O)OC)[C@H](OC(=O)CC)[C@@H](OC(=O)CC)[C@@H]1OC(=O)CC [Compound 4, Methyl ((2R,3R,4S,5R,6R)-3,4,5-tris(propionyloxy)-6-((propionyloxy)methyl)tetrahydro-2H-pyran-2-yl) fumarate] | B (B: 25-75% of the tested compound remaining) | C (C: >75% of the tested compound remaining) | B (B: 25-75% of the tested compound remaining) |
| CCCC(=O)O[C@@H]1O[C@H](COC(=O)/C=C/C(=O)OC)[C@@H](OC(=O)CCC)[C@H](OC(=O)CCC)[C@H]1OC(=O)CCC [Compound 23, Methyl (((2R,3R,4S,5R,6S)-3,4,5,6-tetrakis(butyryloxy)tetrahydro-2H-pyran-2-yl)methyl) fumarate] | B (B: 25-75% of the tested compound remaining) | A (A: <25% of the tested compound remaining) | A (A: <25% of the tested compound remaining) |
| CCCC(=O)O[C@@H]1[C@@H](OC(=O)CCC)[C@@H](OC(=O)/C=C/C(=O)OC)OC[C@H]1OC(=O)CCC [Compound 8, Methyl ((2R,3R,4S,5R)-3,4,5-tris(butyryloxy)tetrahydro-2H-pyran-2-yl) fumarate] | C (C: >75% of the tested compound remaining) | A (A: <25% of the tested compound remaining) | C (C: >75% of the tested compound remaining) |
| CCC(=O)O[C@H]1[C@@H](OC(=O)/C=C/C(=O)OC)OC[C@@H](OC(=O)CC)[C@H]1OC(=O)CC [Compound 9, Methyl ((2R,3R,4R,5R)-3,4,5-tris(propionyloxy)tetrahydro-2H-pyran-2-yl) fumarate] | C (C: >75% of the tested compound remaining) | A (A: <25% of the tested compound remaining) | C (C: >75% of the tested compound remaining) |
| CCCC(=O)OC[C@H]1O[C@H](OC(=O)/C=C/C(=O)OC)[C@H](OC(=O)CCC)[C@@H](OC(=O)CCC)[C@@H]1OC(=O)CCC [Compound 11, Methyl ((2R,3R,4S,5R,6R)-3,4,5-tris(butyryloxy)-6-((butyryloxy)methyl)tetrahydro-2H-pyran-2-yl) fumarate] | B (B: 25-75% of the tested compound remaining) | B (B: 25-75% of the tested compound remaining) | B (B: 25-75% of the tested compound remaining) |
